Laboratory results as given in publication PMC3569853 (European journal of medicinal chemistry, 2012).
Read-outs that look alike come from different tables or passages of the source.

Experiments:
[1] = molecular target: T1, μ-opioid receptor (hMOR-CHO cells) (Homo sapiens, UniProt P35372); assay: biochemical; assay type: binding
[2] = molecular target: κ-opioid receptor (hKOR-CHO cells) (Homo sapiens, UniProt P41145); assay: Opioid receptor binding assay, κ; conditions: for Ki: [3H]-U69,593, CHO hKOR cells, full binding assay, ±SD; for κ/μ: selectivity ratio Ki κ / Ki μ
[3] = molecular target: δ-opioid receptor (hDOR-CHO cells) (Homo sapiens, UniProt P41143); assay: Opioid receptor binding assay, δ; conditions: for δ~ μ: selectivity ratio Ki δ / Ki μ
[4] = molecular target: T1, μ-opioid receptor (hMOR-CHO cells); assay: biochemical
[5] = molecular target: T1, μ-opioid receptor (hMOR-CHO cells); assay: Initial binding screen, estimated Ki; conditions: read-out: estimated Ki (μ)
[6] = read-out: Ki δ, [3H]-DADLE, CHO hDOR cells, full binding assay, ±SD

δ-opioid receptor (hDOR-CHO cells), sequence (P41143 whole entry): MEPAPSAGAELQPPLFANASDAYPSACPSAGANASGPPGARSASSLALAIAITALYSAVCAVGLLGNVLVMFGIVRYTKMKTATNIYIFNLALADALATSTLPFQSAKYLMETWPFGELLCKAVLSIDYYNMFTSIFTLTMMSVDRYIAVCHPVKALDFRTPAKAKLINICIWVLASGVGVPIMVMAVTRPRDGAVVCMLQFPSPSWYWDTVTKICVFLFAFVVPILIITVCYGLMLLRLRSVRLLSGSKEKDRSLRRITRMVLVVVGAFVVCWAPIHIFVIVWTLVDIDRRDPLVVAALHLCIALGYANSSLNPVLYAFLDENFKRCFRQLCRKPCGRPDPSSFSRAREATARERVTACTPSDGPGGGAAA
κ-opioid receptor (hKOR-CHO cells), sequence (P41145 whole entry): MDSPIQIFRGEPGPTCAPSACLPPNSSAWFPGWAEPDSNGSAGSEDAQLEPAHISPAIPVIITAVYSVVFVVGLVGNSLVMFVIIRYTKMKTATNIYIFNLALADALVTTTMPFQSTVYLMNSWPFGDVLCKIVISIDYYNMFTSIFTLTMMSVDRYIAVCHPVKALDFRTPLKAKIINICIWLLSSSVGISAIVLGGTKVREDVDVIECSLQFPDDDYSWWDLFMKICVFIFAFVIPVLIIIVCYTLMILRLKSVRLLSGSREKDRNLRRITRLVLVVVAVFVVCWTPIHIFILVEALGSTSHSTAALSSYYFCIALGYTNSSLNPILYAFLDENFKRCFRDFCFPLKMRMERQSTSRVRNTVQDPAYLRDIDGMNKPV
T1 sequence (P35372 whole entry): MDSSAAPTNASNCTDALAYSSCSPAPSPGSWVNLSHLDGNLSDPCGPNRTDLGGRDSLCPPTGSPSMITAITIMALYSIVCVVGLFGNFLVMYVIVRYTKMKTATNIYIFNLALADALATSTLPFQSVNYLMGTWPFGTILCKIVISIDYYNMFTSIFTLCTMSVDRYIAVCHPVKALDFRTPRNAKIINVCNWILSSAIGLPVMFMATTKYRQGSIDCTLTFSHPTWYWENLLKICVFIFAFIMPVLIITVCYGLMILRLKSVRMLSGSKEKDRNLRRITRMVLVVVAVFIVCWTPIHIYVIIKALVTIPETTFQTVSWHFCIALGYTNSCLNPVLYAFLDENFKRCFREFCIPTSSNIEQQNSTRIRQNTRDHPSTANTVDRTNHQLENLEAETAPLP

Molecule	Ki ([1]; Ki μ) [nM]	Ki ([2]; Ki κ) [nM]	κ/μ [2]	Ki [3] [nM]	δ~ μ [3]	Ki ([1]; read-out: Ki μ) [nM]	Ki ([2]; read-out: Ki κ) [nM]	Ki [3, 6] [nM]	Ke μ [4] [nM]	potency estimated from few doses [5] [nM]	Kb [4] [nM]
CN1CCC23CCCC1C2C=Cc1c(O)cccc13 (stereo not drawn) [Compound 14, 13-methyl-2,3,4,10a-tetrahydro-1H-1,4a-(epiminoethano)phenanthren-8-ol]	67 ± 7	3890 ± 441	58	> 10000	149						
13-phenethyl-2,3,4,9,10,10a-hexahydro-1H-1,4a-(epiminoethano)-phenanthrene-8,9α-diol [Compound 12]			38		714	14 ± 2	525 ± 39	> 10000	6 ± 1		
13-methyl-2,3,4,9,10,10a-hexahydro-1H-1,4a-(epiminoethano)-phenanthrene-8,9α-diol [Compound 10]					107	30 ± 6	2020 ± 169	3220 ± 332	706 ± 135		
13-phenethyl-2,3,4,9,10,10a-hexahydro-1H-1,4a-(epiminoethano)phenanthrene-8,9β-diol [Compound 13]			5		56		923 ± 32	> 10000			
CN1CCC23CCCC1C2C=Cc1ccc(O)cc13 (stereo not drawn) [Compound 20, 13-methyl-2,3,4,10a-tetrahydro-1H-1,4a-(epiminoethano)phenanthren-6-ol]	57 ± 6	4040 ± 363	71	> 10000	175					67	
Oc1cccc2c1CCC1C3CCCC21CCN3CCc1ccccc1 (stereo not drawn) [Compound 17, 13-phenethyl-2,3,4,9,10,10a-hexahydro-1H-1,4a-(epiminoethano)phenanthrene-8-ol]	21 ± 5	873 ± 101	42	2830 ± 223	135						7 ± 1.8
O=C1CC2C3CCCC2(CCN3CCc2ccccc2)c2cc(O)ccc21 (stereo not drawn) [Compound 18, 6-hydroxy-13-phenethyl-3,4,10,10a-tetrahydro-1H-1,4a-(epiminoethano)phenanthren-9(2H)-one]										80	
Oc1ccc2c(c1)C13CCCC(C1C=C2)N(CCc1ccccc1)CC3 (stereo not drawn) [Compound 23, 13-phenethyl-2,3,4,10a-tetrahydro-1H-1,4a-(epiminoethano)phenanthren-6-ol]	2.6 ± 0.35	51 ± 4	20	127 ± 31	49						0.34 ± 0.07
Oc1cccc2c1C=CC1C3CCCC21CCN3CCc1ccccc1 (stereo not drawn) [Compound 16, 13-phenethyl-2,3,4,10a-tetrahydro-1H-1,4a-(epiminoethano)phenanthren-8-ol]	19 ± 4	369 ± 26	19	1840 ± 212	97						1.7 ± 0.26
O=C1CC2C3CCCC2(CCN3CCc2ccccc2)c2cccc(O)c21 (stereo not drawn) [Compound 9, 8-hydroxy-13-phenethyl-3,4,10,10a-tetrahydro-1H-1,4a-(epiminoethano)phenanthren-9(2H)-one]										297	
13-phenethyl-2,3,4,9,10,10a-hexahydro-1H-1,4a-(epiminoethano)-phenanthrene-6,9α-diol [Compound 22]			25		139	72 ± 10	1810 ± 95	> 10000			
Oc1ccc2c(c1)C13CCCC(C1CC2)N(CCc1ccccc1)CC3 (stereo not drawn) [Compound 24, 13-phenethyl-2,3,4,9,10,10a-hexahydro-1H-1,4a-(epiminoethano)phenanthren-6-ol]	2.3 ± 0.2	61 ± 6	27	186 ± 25	81						0.71 ± 0.13
